This note sets out measurements from patent publication US11773067B2, “(Trifluoromethyl)pyrimidine-2-amine compounds” (Eli Lilly and Company, priority 2020, dated 2023).

Read-outs that look alike come from different tables or passages of the source.

The target in one series is T1, human MrgX1 receptor (Homo sapiens, UniProt Q96LB2).
T1 construct: expressed in transfected cells
Briefly: IP1 Cellular Assay for EC50 Determination Against hMrgX1 by HTRF. Particulars: in presence of EC15 of BAM8-22; for EC50: HEK293 cells stably expressing hMrgX1, geometric mean (SEM, n), read-out: Relative EC50 (SEM, n). It is filed as cell-based. How it is done:
IP1 Cellular Assay for EC50 Determination Against hMrgX1 by HTRF
Cell plating: HEK293 cells stably expressing the recombinant human MrgX1 receptor are expanded in culture flasks (Corning, T150), using growth media containing DMEM with glutamine (GIBCO™, Cat. #11960-044) supplemented with 10% heat-inactivated FBS (HyClone™, Cat. #CH30073), 1% penicillin/streptomycin (HyClone™, Cat. #SV30010; 10,000 U/mL penicillin; 10,000 μg/mL streptomycin in 0.85% NaCl), 20 mM HEPES (GIBCO™, Cat. #15530122) and 0.3 mg/mL G418 (GIBCO™, Cat. #11811031). When cell monolayers achieve a level of 80-90% confluence, monolayers are washed once with 10 mL of DPBS (HyClone™, Cat. #14190-144), dissociated using TrypLE™ Express enzyme cell dissociation media (GIBCO™, Cat. #12605-010), and diluted by addition of 10 mL DPBS. Dissociated cells are transferred to a sterile 50 mL conical tube, pelleted by centrifugation at 300×g to remove the growth and dissociation media, and diluted to 1M cells/mL into DMEM for plating.
IP1 Potency and Efficacy Determination: Test compounds are dissolved in DMSO to a concentration of 10 mM and serially diluted in DMSO to obtain a 10-point concentration response stock dilution plate. Growth media is removed from the cell plate, and the stock 10-point dilution plate is diluted into media and stamped into the cell plate at a concentration 2× higher than the final test concentration of 30 μM maximum. The endogenous agonist […] (Tocris-BioScience® Cat. #1763) is diluted to the EC15, determined independently at a minimum of n=3, into the cell plate and incubated at room temperature for 120 min. Subsequently, half the volume each of anti-IP1 cryptate and d2-labeled IP1 in lysis buffer, supplied with the IP-One Gq Kit (CisBio Cat. #62IPAPEC) are added to the cell plate to initiate cell lysis, and incubated for 60 min at room temperature in the dark. At that point, fluorescence is determined at 620 and 665 nm (˜100 μs following laser excitation).
Data Analysis: Fluorescent ratios are determined as the ratio of the fluorescence emission at […] and converted to IP1 concentration, using the IP1 standard curve generated in a separate plate, following the manufacturer's instructions. The IP1 concentration is then plotted as a function of compound concentration. Potentiator potency (EC50) is defined as the compound concentration, in the presence of the EC15 of the endogenous agonist […], resulting in 50% of the increase in IP1 concentration achieved by a saturating concentration of […], and is determined by using Genedata software (GeneData AG, Basel Switzerland) fitting the following equation to the 10-point CRC, where y is the IP1 concentration determined for a given compound concentration, [L] denotes the concentration of test compound and Max is the maximum increase achieved by a saturating concentration of […]: Y=Max*[L]/(EC50+[L]) EC50 values are reported as the geometric mean in nM (SEM, n).
On the technique in general: Time-resolved FRET reads energy transfer from a long-lived donor to a nearby acceptor.

A short description of series [1]: In Vivo Determination of Kp,uu,brain in Mice. Set-up: species or system mouse. The note with it: for Kp uu at 2 h / concentration at 2 h: male, mouse; for Kp uu at 2 h: C57Bl/6, brain/plasma; for concentration at 2 h: C57Bl/6, mouse, po. An excerpt:
In Vivo Determination of Kp,uu,brain in Mice
Unbound brain-to-plasma partition coefficient (Kp,uu,brain) is one of the key pharmacokinetic parameter for evaluating a compound's ability to cross the blood-brain barrier (BBB). It is typically measured in pre-clinical species using the following methodology. Kp,uu,brain values indicate the fraction of free drug in plasma that partitions across the BBB.
Subjects: The subjects for these studies are 12 male C57Bl/6 mice (Envigo, Indianapolis, IN, USA) between 8-10 weeks old at time of test. Mice are housed in groups of 4 in high density plastic home cages. Food and water is available ad libitum. The rooms are maintained at 73° F. with 30-70% relative humidity and kept on a light/dark cycle of 0600-1800 h. Agent: The compound of Example 2 is prepared at 0.3, 1, and 3 mg/ml in the 1% HEC, 0.25% TWEEN®80, 0.05% DOWSIL™ vehicle in water. Prepared compound is sonicated in water bath for 30 min until a suspension is formed. Mice are dosed at 10 ml/kg for a respective 3, 10 or 30 mg/kg dose. Dosing and Tissue Collection: For this experiment, four mice per dosing group receive oral dosing of either: 3, 10, or 30 mg/kg of the compound of Example 2. Mice are euthanized at 2 h post-dosing via CO2 asphyxiation, plasma samples are collected via cardia puncture, and mouse brains removed, weighed, and frozen on dry ice. Blood samples are stored in EDTA tubes on wet ice and centrifuged at 15 k rpm for 10 min. Plasma is collected, plated in a 96-well plate, and frozen at −80° C.
Pharmacokinetic sampling: Plasma and brain samples obtained are analyzed for Example 2 using an LC-MS/MS method (Q2 Solutions, Indianapolis, IN, USA). Plasma samples are extracted using protein precipitation. The lower limit of quantification is 25 ng/mL, and the upper limit of quantification is 5000 ng/mL. Brain samples are homogenized, and the analyte is extracted using protein precipitation. The lower limit of quantification is 4 ng/g and the upper limit of quantification is 200000 ng/g.
Analysis and Results: Kp,uu,brain is calculated for each time point from the expression below where individual components are derived from a combination of in vitro and in vivo measurements carried out as described above:
[formula] where Ctotal,brain, Cu,brain, Ctotal,plasma, and Cu,plasma are total and unbound brain and plasma concentrations, and fu,brain and fu,plasma are fractions unbound in brain and plasma, respectively.

Series [2] can be described thus: Plasma and brain homogenate protein binding by equilibrium dialysis. It is filed as in vitro ADME, mouse. How it is done: Determination of plasma and brain protein binding: Mouse plasma and brain homogenate protein binding is determined in vitro using equilibrium dialysis, as described elsewhere [Zamek-Gliszczynski et al., J Pharm Sci, 101:1932-1940, 2012]. The results are reported as fraction unbound in plasma (fu,plasma) and brain (fu,brain) which are then utilized to calculate Kp,uu,brain as described below. Mouse fu,plasma and fu,brain of Example 2 are determined to be 0.0421 and 0.0181, respectively.
On the technique in general: Equilibrium dialysis compares concentrations on both sides of a semipermeable membrane.

T1 sequence (Q96LB2 whole entry): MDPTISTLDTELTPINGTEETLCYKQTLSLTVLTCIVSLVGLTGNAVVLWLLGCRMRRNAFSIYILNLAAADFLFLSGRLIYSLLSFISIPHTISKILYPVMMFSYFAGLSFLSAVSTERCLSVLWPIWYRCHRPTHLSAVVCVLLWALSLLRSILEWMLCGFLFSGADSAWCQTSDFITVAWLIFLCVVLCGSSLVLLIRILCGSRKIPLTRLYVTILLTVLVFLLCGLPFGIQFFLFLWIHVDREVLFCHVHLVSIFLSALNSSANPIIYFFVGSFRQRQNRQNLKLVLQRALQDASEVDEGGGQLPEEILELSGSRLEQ

The EC50 is the concentration giving half of the maximal effect. Turning to `Nc1nc(Oc2c(F)cccc2F)cc(C(F)(F)F)n1` [Example 1, 4-(2,6-Difluorophenoxy)-6-(trifluoromethyl)pyrimidin-2-amine], the EC50 at human MrgX1 receptor is 0.072 µM.
In general, fraction unbound refers to the share of the substance not bound to proteins or other matrix. Take `Nc1nc(Oc2c(F)cc(F)cc2F)cc(C(F)(F)F)n1` [Example 2, 4-(2,4,6-Trifluorophenoxy)-6-(trifluoromethyl)pyrimidin-2-amine]: at human MrgX1 receptor, the EC50 was found to be 0.061 µM. For the same compound, in series [1] (2 h post-oral administration in mice), the “blood brain barrier crossing / central penetrance” value is “crosses the blood brain barrier and has central penetrance”. Further, the Kp uu at 2 h in series [1] (3 mg/kg oral) is 0.506 ± 0.107; in series [1] (10 mg/kg oral), 0.586 ± 0.116; in series [1] (30 mg/kg oral) it was 0.601 ± 0.0553. The concentration at 2 h in series [1] (brain, 3 mg/kg, 3 mg/kg oral, read-out: Total brain conc. (Ctotal,brain) ± SD) turned out to be 0.972 ± 0.353 µM; in series [1] (brain, 3 mg/kg, 3 mg/kg oral, using fu,brain 0.0181, read-out: Unbound brain conc. (Cu,brain) ± SD), 0.0176 ± 0.00639 µM; in series [1] (brain, 10 mg/kg, 10 mg/kg oral, read-out: Total brain conc. (Ctotal,brain) ± SD) it was 3.9 ± 1.8 µM; in series [1] (brain, 10 mg/kg, 10 mg/kg oral, using fu,brain 0.0181, read-out: Unbound brain conc. (Cu,brain) ± SD), 0.0554 ± 0.0325 µM; in series [1] (brain, 30 mg/kg, 30 mg/kg oral, read-out: Total brain conc. (Ctotal,brain) ± SD), 13.7 ± 4.2 µM; in series [1] (brain, 30 mg/kg, 30 mg/kg oral, using fu,brain 0.0181, read-out: Unbound brain conc. (Cu,brain) ± SD) it was 0.248 ± 0.0759 µM. Besides, the concentration at 2 h in series [1] (plasma, 3 mg/kg, 3 mg/kg oral, read-out: Total plasma conc. (Ctotal,plasma) ± SD) came out at 0.809 ± 0.14 µM; in series [1] (plasma, 3 mg/kg, 3 mg/kg oral, using fu,plasma 0.0421, read-out: Unbound plasma conc. (Cu,plasma) ± SD), 0.0341 ± 0.00594 µM; in series [1] (plasma, 10 mg/kg, 10 mg/kg oral, read-out: Total plasma conc. (Ctotal,plasma) ± SD), 2.77 ± 0.651 µM; in series [1] (plasma, 10 mg/kg, 10 mg/kg oral, using fu,plasma 0.0421, read-out: Unbound plasma conc. (Cu,plasma) ± SD) it was 0.117 ± 0.0274 µM; in series [1] (plasma, 30 mg/kg, 30 mg/kg oral, read-out: Total plasma conc. (Ctotal,plasma) ± SD) it was 9.7 ± 2.41 µM; in series [1] (plasma, 30 mg/kg, 30 mg/kg oral, using fu,plasma 0.0421, read-out: Unbound plasma conc. (Cu,plasma) ± SD) it was 0.409 ± 0.101 µM. For the same compound, the fraction unbound in series [2] (mouse brain homogenate, read-out: fraction unbound in brain (fu,brain)) is 0.0181; in series [2] (mouse plasma, read-out: fraction unbound in plasma (fu,plasma)) it was 0.0421.
In the case of `N#Cc1cc(F)c(Oc2cc(C(F)(F)F)nc(N)n2)c(F)c1` [Example 3, 4-[2-Amino-6-(trifluoromethyl)pyrimidin-4-yl]oxy-3,5-difluoro-benzonitrile], the EC50 at human MrgX1 receptor is 0.104 µM.
Still for that read-out and setting: then `Cc1c(Oc2c(F)cc(F)cc2F)nc(N)nc1C(F)(F)F` [Example 4, 5-Methyl-4-(trifluoromethyl)-6-(2,4,6-trifluorophenoxy)pyrimidin-2-amine], with 0.04 µM.
On to `Cc1c(Oc2c(F)cc(C#N)cc2F)nc(N)nc1C(F)(F)F` [Example 5, 4-[2-Amino-5-methyl-6-(trifluoromethyl)pyrimidin-4-yl]oxy-3,5-difluoro-benzonitrile], for which the EC50 on human MrgX1 receptor was 0.082 µM. Also, the “Max (Mean ± SEM)” value on human MrgX1 receptor (maximum stimulation achieved in the assay) is on record as 120 nM.
With `Cc1c(Oc2c(F)cccc2F)nc(N)nc1C(F)(F)F` [Example 6, 4-(2,6-difluorophenoxy)-5-methyl-6-(trifluoromethyl)pyrimidin-2-amine], the EC50 on human MrgX1 receptor worked out at 0.038 µM.
